# Data as given in ChEMBL document CHEMBL1139192, “Novel bis(indolyl)maleimide pyridinophanes that are potent, selective inhibitors of glycogen synthase kinase-3” (Bioorg Med Chem Lett, 2007).
# Tests used:
# [1] = target: Angiopoietin-1 receptor (Homo sapiens) (UniProt Q02763); assay: Residual activity of human Tie2 at 1 uM relative to control
# [2] = target: Mitogen-activated protein kinase 14 (Homo sapiens) (UniProt Q16539); assay: Inhibition of human SAPK2a at 1 uM relative to control; values are per cent of control
# Mitogen-activated protein kinase 14 (Homo sapiens), sequence (Q16539 whole entry): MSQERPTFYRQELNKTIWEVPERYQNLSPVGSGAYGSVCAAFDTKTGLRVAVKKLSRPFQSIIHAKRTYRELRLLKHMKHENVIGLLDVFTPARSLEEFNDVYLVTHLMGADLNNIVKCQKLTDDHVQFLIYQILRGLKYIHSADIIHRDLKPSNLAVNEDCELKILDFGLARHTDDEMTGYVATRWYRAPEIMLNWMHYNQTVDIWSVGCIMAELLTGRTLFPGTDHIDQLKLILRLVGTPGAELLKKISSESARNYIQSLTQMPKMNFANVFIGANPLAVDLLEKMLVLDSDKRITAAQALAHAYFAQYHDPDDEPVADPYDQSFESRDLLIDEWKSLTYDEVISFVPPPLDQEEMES
# [3] = target: Mitogen-activated protein kinase 1 (Homo sapiens) (UniProt P28482); assay: Inhibition of MAPK1 at 1 uM relative to control; values are per cent of control
# Mitogen-activated protein kinase 1 (Homo sapiens), sequence (P28482 whole entry): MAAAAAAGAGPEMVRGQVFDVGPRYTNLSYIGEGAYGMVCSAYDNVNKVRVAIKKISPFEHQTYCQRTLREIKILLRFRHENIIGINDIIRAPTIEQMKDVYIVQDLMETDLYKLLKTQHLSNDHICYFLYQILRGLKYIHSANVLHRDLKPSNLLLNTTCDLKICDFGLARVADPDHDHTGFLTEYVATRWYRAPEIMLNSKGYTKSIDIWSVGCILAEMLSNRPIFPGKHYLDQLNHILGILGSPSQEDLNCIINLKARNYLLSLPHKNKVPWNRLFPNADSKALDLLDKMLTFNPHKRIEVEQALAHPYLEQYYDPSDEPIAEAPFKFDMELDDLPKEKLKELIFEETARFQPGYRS
# [4] = target: T1, Serine/threonine-protein kinase D1 (Homo sapiens) (UniProt Q15139); assay: Residual activity of human PKCmu at 1 uM relative to control
# T1 sequence (whole entry): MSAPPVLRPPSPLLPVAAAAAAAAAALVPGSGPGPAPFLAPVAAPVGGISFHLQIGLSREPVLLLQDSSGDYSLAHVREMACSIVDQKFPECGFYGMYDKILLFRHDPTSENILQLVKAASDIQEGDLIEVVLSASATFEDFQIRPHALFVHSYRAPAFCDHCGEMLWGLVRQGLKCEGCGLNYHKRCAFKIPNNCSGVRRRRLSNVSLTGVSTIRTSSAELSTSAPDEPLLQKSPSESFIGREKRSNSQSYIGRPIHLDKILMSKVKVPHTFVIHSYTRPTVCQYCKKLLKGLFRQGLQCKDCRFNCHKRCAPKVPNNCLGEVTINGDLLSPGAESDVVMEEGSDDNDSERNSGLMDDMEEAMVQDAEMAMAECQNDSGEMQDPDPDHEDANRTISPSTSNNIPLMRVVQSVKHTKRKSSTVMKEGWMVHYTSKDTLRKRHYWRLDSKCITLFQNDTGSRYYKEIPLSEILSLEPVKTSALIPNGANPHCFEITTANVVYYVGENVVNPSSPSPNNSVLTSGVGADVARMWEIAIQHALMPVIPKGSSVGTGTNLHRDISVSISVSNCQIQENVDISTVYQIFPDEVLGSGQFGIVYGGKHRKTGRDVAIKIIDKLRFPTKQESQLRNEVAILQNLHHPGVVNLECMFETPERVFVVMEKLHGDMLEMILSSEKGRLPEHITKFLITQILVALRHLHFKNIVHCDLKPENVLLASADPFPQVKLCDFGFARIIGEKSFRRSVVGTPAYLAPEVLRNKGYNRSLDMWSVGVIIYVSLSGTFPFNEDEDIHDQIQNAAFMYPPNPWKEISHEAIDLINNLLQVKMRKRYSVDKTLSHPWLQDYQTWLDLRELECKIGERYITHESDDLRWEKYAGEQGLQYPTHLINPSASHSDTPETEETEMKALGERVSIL
# [5] = target: Ribosomal protein S6 kinase beta-1 (Homo sapiens) (UniProt P23443); assay: Inhibition of human p70S6K at 1 uM relative to control; values are per cent of control
# Ribosomal protein S6 kinase beta-1 (Homo sapiens), sequence (P23443 whole entry, looked up): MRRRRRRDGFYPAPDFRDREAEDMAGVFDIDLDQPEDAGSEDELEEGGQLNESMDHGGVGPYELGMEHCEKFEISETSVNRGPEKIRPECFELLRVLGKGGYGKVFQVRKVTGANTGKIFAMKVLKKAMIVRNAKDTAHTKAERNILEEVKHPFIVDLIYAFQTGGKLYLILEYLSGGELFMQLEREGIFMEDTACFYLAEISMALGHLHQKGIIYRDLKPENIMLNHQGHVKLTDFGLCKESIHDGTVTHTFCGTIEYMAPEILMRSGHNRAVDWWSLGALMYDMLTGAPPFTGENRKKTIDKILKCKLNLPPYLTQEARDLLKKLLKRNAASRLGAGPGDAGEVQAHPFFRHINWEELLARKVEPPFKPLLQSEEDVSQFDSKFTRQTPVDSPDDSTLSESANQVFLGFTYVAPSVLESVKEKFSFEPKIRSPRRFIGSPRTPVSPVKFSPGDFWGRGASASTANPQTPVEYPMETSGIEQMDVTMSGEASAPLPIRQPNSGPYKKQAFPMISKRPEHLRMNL
# [6] = target: RAF proto-oncogene serine/threonine-protein kinase (Homo sapiens) (UniProt P04049); assay: Residual activity of humna c-RAF at 1 uM relative to control
# RAF proto-oncogene serine/threonine-protein kinase (Homo sapiens), sequence (P04049 whole entry): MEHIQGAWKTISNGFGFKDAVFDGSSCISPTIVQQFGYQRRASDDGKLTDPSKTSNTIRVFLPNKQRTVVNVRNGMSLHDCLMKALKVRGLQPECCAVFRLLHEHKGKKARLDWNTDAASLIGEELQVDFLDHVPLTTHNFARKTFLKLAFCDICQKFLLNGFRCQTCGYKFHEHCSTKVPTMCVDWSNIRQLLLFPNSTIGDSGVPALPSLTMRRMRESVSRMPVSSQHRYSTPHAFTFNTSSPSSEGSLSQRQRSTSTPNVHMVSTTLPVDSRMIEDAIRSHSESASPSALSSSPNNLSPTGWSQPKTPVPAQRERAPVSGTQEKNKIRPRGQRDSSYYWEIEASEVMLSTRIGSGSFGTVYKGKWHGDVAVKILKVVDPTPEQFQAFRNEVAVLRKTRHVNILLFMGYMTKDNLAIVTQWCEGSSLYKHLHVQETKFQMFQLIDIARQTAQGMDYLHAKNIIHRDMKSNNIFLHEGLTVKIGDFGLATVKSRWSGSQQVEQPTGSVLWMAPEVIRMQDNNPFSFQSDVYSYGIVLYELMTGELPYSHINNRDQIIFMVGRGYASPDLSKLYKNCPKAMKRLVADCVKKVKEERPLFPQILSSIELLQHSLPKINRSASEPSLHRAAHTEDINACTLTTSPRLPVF
# [7] = target: Macrophage colony-stimulating factor 1 receptor (Homo sapiens) (UniProt P07333); assay: Residual activity of human Fms at 1 uM relative to control
# Macrophage colony-stimulating factor 1 receptor (Homo sapiens), sequence (P07333 whole entry): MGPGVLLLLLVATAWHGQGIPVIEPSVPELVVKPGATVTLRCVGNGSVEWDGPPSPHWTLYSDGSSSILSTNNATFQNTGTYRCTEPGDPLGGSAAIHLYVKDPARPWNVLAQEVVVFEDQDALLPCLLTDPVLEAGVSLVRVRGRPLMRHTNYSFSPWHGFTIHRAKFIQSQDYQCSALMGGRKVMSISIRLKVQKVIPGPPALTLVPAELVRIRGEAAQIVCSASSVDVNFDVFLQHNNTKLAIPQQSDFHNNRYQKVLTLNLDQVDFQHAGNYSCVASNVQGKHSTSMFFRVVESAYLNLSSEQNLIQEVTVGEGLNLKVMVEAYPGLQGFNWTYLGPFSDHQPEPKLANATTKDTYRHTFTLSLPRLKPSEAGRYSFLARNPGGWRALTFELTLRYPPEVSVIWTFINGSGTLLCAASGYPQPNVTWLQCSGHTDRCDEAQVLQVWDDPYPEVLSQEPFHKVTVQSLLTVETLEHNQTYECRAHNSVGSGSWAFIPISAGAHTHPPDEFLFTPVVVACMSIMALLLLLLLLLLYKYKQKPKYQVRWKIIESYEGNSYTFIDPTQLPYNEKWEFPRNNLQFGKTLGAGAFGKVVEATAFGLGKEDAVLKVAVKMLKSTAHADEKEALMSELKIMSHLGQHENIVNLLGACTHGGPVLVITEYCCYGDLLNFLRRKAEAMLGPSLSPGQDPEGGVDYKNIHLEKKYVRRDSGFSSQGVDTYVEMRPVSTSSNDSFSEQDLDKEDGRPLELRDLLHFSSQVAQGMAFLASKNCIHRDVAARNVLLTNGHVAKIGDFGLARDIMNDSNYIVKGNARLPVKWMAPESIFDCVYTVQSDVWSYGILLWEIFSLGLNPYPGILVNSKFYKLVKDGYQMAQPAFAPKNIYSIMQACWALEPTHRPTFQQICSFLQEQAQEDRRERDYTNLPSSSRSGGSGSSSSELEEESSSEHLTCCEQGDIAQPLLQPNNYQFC
# [8] = target: Serine/threonine-protein kinase Chk2 (Homo sapiens) (UniProt O96017); assay: Inhibition of human CHK2 at 1 uM relative to control; values are per cent of control
# Serine/threonine-protein kinase Chk2 (Homo sapiens), sequence (O96017 whole entry): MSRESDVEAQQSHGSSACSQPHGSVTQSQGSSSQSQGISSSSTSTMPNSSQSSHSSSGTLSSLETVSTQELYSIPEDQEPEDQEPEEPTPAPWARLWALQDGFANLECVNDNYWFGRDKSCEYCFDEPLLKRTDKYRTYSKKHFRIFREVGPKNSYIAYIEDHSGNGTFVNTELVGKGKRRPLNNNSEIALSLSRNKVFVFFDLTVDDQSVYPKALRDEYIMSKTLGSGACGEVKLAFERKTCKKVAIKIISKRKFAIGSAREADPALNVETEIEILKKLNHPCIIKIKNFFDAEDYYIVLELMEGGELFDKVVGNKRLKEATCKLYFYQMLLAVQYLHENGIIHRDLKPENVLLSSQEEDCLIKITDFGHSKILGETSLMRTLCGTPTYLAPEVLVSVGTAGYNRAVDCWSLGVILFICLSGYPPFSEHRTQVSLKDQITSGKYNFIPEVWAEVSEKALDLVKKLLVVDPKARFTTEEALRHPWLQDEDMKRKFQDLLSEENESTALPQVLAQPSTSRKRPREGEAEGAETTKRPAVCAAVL
# [9] = target: T2, Ephrin type-B receptor 4 (Homo sapiens) (UniProt P54760); assay: Residual activity of human EphB4 at 1 uM relative to control
# T2 sequence (whole entry): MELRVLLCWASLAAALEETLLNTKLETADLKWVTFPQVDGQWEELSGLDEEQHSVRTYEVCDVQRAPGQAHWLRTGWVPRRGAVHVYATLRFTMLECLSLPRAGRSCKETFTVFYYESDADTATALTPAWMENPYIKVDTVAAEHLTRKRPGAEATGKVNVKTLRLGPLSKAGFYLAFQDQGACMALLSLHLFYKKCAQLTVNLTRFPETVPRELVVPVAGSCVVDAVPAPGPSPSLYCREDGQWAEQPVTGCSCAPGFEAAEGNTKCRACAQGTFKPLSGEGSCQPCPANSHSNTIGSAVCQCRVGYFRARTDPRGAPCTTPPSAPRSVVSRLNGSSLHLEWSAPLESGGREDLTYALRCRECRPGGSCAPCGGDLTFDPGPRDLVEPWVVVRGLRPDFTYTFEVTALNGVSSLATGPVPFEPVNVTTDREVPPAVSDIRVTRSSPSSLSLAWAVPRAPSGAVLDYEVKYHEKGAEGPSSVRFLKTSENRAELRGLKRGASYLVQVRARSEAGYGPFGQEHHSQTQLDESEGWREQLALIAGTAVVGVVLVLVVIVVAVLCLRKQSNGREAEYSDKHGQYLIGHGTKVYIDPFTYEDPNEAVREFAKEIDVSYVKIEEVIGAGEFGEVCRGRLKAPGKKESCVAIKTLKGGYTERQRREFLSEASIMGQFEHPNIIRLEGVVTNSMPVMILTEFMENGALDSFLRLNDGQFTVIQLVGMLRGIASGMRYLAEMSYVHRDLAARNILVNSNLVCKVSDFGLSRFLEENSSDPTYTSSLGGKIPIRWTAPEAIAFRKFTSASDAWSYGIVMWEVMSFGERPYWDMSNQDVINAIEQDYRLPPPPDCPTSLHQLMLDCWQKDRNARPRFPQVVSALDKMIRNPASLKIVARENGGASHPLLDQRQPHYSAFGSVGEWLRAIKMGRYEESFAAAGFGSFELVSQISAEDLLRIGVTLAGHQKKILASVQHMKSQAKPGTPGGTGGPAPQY
# [10] = target: Tyrosine-protein kinase Blk (Mus musculus) (UniProt P16277); assay: Inhibition of mouse Blk at 1 uM relative to control; values are per cent of control
# Tyrosine-protein kinase Blk (Mus musculus), sequence (P16277 whole entry): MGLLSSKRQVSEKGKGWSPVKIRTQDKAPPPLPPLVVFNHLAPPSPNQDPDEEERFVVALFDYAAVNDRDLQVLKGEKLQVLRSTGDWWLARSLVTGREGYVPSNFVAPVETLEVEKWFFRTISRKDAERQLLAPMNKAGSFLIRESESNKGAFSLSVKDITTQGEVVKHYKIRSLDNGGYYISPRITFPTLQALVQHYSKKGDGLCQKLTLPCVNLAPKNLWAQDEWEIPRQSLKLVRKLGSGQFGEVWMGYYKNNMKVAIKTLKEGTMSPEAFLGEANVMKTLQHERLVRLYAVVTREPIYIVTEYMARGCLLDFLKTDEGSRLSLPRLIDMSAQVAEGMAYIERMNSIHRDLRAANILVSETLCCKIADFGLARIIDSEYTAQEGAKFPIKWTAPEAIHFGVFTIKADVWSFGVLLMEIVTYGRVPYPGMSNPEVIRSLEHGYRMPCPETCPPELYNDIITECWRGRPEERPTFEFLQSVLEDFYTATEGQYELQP
# [11] = target: Ribosomal protein S6 kinase alpha-1 (Homo sapiens, UniProt Q15418); assay: Inhibition of human Rsk1 at 1 uM relative to control; values are per cent of control
# Angiopoietin-1 receptor (Homo sapiens), sequence (Q02763 whole entry): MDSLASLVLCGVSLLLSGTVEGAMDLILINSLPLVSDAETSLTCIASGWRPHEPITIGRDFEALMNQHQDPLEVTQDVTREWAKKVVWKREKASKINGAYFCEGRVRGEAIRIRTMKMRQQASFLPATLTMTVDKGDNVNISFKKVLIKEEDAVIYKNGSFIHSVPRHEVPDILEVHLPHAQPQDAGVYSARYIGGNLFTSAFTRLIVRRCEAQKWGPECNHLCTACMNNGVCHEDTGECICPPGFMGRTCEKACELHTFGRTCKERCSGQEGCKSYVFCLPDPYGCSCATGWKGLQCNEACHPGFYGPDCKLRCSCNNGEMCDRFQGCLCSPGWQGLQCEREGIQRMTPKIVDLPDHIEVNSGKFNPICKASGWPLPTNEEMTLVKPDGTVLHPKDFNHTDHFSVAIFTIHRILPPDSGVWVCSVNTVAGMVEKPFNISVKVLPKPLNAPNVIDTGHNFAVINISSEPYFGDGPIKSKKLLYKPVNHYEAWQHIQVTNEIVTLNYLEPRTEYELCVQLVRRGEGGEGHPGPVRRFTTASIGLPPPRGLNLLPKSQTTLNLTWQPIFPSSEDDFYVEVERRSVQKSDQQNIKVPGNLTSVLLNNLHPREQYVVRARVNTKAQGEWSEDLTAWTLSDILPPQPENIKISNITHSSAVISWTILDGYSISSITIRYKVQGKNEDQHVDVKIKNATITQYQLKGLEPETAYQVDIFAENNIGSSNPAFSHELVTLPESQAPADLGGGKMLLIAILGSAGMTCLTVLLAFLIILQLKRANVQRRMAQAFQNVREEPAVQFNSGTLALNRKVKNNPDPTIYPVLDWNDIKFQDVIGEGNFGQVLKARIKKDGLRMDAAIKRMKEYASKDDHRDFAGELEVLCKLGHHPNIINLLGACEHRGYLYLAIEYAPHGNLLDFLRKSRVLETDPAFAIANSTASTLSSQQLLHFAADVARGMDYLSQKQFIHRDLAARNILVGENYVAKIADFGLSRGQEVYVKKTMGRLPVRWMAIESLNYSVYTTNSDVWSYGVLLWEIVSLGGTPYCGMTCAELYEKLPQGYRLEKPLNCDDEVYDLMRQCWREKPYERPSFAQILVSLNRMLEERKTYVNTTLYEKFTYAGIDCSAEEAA
SMILES,residual activity [1] [%],residual activity [2] [%],residual activity [3] [%],residual activity [4] [%],residual activity [5] [%],residual activity [6] [%],residual activity [7] [%],residual activity [8] [%],residual activity [9] [%],residual activity [10] [%],residual activity [11] [%]
CN(C)c1nc2ccc1CCCn1cc(c3ccccc31)C1=C(C(=O)NC1=O)c1cn(c3ccccc13)CC2,110,108,97,110,98,103,94,91,89,109,39
CN(C)c1cc2cc(n1)CCCn1cc(c3ccccc31)C1=C(C(=O)NC1=O)c1cn(c3ccccc13)CCC2,109,92,86,118,91,87,101,94,103,70,15
O=C1NC(=O)C2=C1c1cn(c3ccccc13)CCCc1ccc(c(N3CCCC3)n1)CCCn1cc2c2ccccc21,107,93,110,113,84,85,106,91,100,91,85
O=C1NC(=O)C2=C1c1cn(c3ccccc13)CCCc1cc(nc(N3CCCC3)c1)CCCn1cc2c2ccccc21,96,92,99,118,95,92,99,84,109,74,15
